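Briefly, cells in 96-well plates were exposed to five compound concentrations for 48 h, and endpoints were estimated by linear interpolation. Here, GI50 denotes the concentration required for 50% inhibition of growth.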 The source made the active and inactive calls. No stated cut-off is given here; in the data, active = GI50 up to about 1.1 µM and inactive = higher.

What all share (test): NCI-60 cell line screen, 48 h
The subject of assay [1] is DLD-1.
Assay [2] concerns DMS-273.
For assay [3], the system named is KM-20L2.
Assay [4] concerns LXFL 529.
In assay [5] the test system is M19-MEL.
Assay [6] relates to SNB-78.
The test system of assay [7] is XF498.
The subject of assay [8] is Hs-578T.
Assay [9] deals with RXF 631.

As to `Cc1cccc(C(C)(C)C)c1NC(=O)C(=O)C(c1cnc2ccccc2n1)[N+](=O)[O-]` (stereo not given), the GI50 in assay [1], in assay [2], in [3], in assay [4], in assay [5] and in assay [6] was > 100 µM (inactive) throughout. Besides, the GI50 in [7] was > 100 µM (inactive).
Turning to `CC1=N/C(=C\c2ccc(N)cc2)C(=O)N1Nc1nnc(NN2C(=O)/C(=C/c3ccc(N)cc3)N=C2C)c2ccccc12`, the GI50 in assay [1] is > 100 µM (inactive); in assay [2] it was 77.3 µM (inactive); in assay [3], > 100 µM (inactive); in assay [4], 36.3 µM (inactive); in assay [5] it was 38.1 µM (inactive).
As to `COc1cc(/C=C/C(=O)Oc2ccccc2)ccc1C(=O)O/C=C/c1ccccc1`, the GI50 in [1], in assay [2], in assay [8], in assay [3], in [5] and in [6] was > 100 µM (inactive) throughout. The GI50 in assay [7] is > 100 µM (inactive).
On to `O=C1OC2(c3ccccc3Oc3ccccc32)c2ccccc21`, for which the GI50 in assay [1], in [2], in [3], in assay [4], in assay [5] and in assay [6] was > 100 µM (inactive) each time.
For `C/C(=N/NC(=S)NCCc1ccccn1)c1cnccn1`, the GI50 in assay [8] was 78.5 µM (inactive).
For `O=C1NC(=O)[C@H]2C3C=CC([C@@H]12)[C@@H]1C(=O)NC(=O)[C@H]31`, the GI50 in [8] was > 100 µM (inactive).
In the case of `N#CC(C#N)=Cc1ccc(C=C2SC3=C(SCCS3)S2)s1`, in assay [8], the GI50 is 41.6 µM (inactive).
Still for that read-out and setting: the same measure for `O=[N+]([O-])c1ccc2c(c1)c1nn2CCCCOc2nn(c3ccc([N+](=O)[O-])cc23)CCCCO1`: > 100 µM (inactive); for `CC(C)(C)c1cc(/C=C(\C#N)C2=NCCO2)cc(C(C)(C)C)c1O`: 5.09 µM (inactive); for `CN(C)Cc1cc(/N=N/c2cccc(Cl)c2)ccc1O`: 11.4 µM (inactive).
Still for that read-out and setting: under `Cc1cc(N(CCOS(C)(=O)=O)CCOS(C)(=O)=O)ccc1/C=N/c1ccc(-c2csc(-c3ccc(Br)cc3)n2)cc1` stands 35.6 µM (inactive); under `CSc1ccc(-c2cc(-c3nc4ccccc4[nH]3)nc(N)c2C#N)cc1`, 24.7 µM (inactive); under `Cn1cnc2c(NCc3ccccc3)nc(NCCO)nc21` [OLOMOUCINE], 69.5 µM (inactive).
On to `O=C(O)c1cc2ccccc2c(/N=N/c2ccc(S(=O)(=O)O)cc2)c1O`, for which the GI50 in assay [8] was > 100 µM (inactive).
On the same count and under the same terms, the same measure for `C=C1C(=O)O[C@H]2[C@H]([C@H](C)CCCC(C)=O)O[C@H]([C@@]3(C)CCC(=O)O3)C[C@@H]12`: 29.2 µM (inactive); for `O=C(Nc1cccc(NC(=O)C(=O)C2CCC3=C(Sc4ccccc4N3)C2=O)n1)C(=O)C1CCC2=C(Sc3ccccc3N2)C1=O` (stereo not given): 53 µM (inactive); for `N#C/C(N)=C(C#N)/N=C/NCCO`: > 100 µM (inactive).
As to `CN(C)c1n/c(=N/c2ncn[nH]2)ss1`, the GI50 in assay [1], in [2], in assay [3], in [4], in [5] and in [6] was > 100 µM (inactive) in each case. The GI50 in assay [7] was > 100 µM (inactive).
Regarding `C=C1C(=O)O[C@@H]2[C@H]1CCC(C)=C1C=CC(=O)[C@]12C`, the GI50 in [1] was 14.9 µM (inactive); in [2], 17.3 µM (inactive); in assay [4], 13.8 µM (inactive); in assay [9], 11.3 µM (inactive); in assay [6] it was 4.61 µM (inactive).
Turning to `CC1(C)CN(c2ccccc2)C(=O)C1OC(=O)[C@@]1(C)C[C@@H]2C=C[C@H]1C2` (stereo not given in full), the GI50 in assay [8] is 31 µM (inactive).
Regarding `O=C(CCc1ccccc1)n1cccc1CO`, the GI50 in [8] is 60.3 µM (inactive).
Regarding `CC(=O)OC12c3ccccc3-c3ccccc3C1C(C(=O)O)C2C(=O)O` (stereo not given), the GI50 in assay [8] was > 10 µM (inactive).
In the case of `CSC1=C(C#N)C(=S)N=C(N)C1C(=O)Nc1ccc(C)cc1` (stereo not given), the GI50 in assay [8] is > 100 µM (inactive).
Consider `O=[N+]([O-])/C(C(Cl)=C(Cl)Cl)=C(/Br)SCc1ccccc1`, for which the GI50 in assay [8] is 11.7 µM (inactive).
Regarding `Fc1nc(Sc2ncnc3nc[nH]c23)nc(-c2c3ccccc3c3sc4ccccc4n23)n1`, in assay [8], the GI50 was > 100 µM (inactive).
For `O=C1O/C(=C\c2ccc(O)c(Br)c2)C(c2ccc(O)c(Cl)c2)=C1Br`, the GI50 in [8] is 15.7 µM (inactive).
In the case of `N#Cc1c(C#N)c(SSc2c(C#N)c(C#N)c(N)n2-c2cccc3ccccc23)n(-c2cccc3ccccc23)c1N`, the GI50 in assay [8] is 24.6 µM (inactive).
With `C/C(Nc1ccc(Cl)cc1)=C1/CCOC1=O`, the GI50 in assay [8] was > 100 µM (inactive).
Regarding `Cc1cc(C)c2c(=O)n(CN3CCC(O)(c4ccccc4)CC3)sc2n1`, the GI50 in assay [8] is 40 µM (inactive).
For the compound `CN(C)c1ccc(/C=C(\NC(=O)c2ccccc2)c2nn(C)c(=O)o2)cc1`, in assay [8], the GI50 was 62.1 µM (inactive).
For the compound `COc1cc(OC)c(/C=C\c2cc(/C=C/c3c(OC)cc(OC)cc3OC)c3ccccc3[n+]2C)c(OC)c1`, the GI50 in assay [8] was 0.863 µM (active).
On to `CCC(=O)N1C(=S)SC[C@H]1C(=O)OC`, for which the GI50 in [1], in [2], in assay [3], in [4], in assay [5] and in assay [6] was > 100 µM (inactive) in each case. In addition, the GI50 in assay [7] is 7.4 µM (inactive).
On to `O=[N+]([O-])C(=C(Nc1ccccc1)Nc1ccccc1)C(Cl)=C(Cl)Cl`, for which, in assay [8], the GI50 is 21.7 µM (inactive).
Same read-out and setting: the same measure for `CC1=C[C@@H](C)C[C@]2(C)CC[C@H](O2)[C@]23CC[C@](CO)(C[C@H](O2)[C@@H]2O[C@@](C)(CC2=O)[C@@H](O)[C@H]2CC[C@@]4(CCC[C@@H](O4)[C@H](C)C(=O)O[C@H]4C[C@H]([C@]5(O)OCC[C@H](C)[C@@H]5O)O[C@H]4C=C1)O2)O3`: 0.00163 µM (active); for `CN(C)CCCNC(=O)c1cc(NC(=O)c2cc(NC(=O)c3cc(NC(=O)CCCn4ccc(CO)c4CO)cn3C)cn2C)cn1C`: 22.1 µM (inactive).
In the case of `Clc1ccccc1CN1COc2c(ccc3cccnc23)C1`, the GI50 in assay [1] is 4.66 µM (inactive); in [2], 3.42 µM (inactive); in assay [3] it was 15.7 µM (inactive); in assay [5] it was 4.14 µM (inactive); in assay [6], 3.37 µM (inactive); in assay [7], 9.68 µM (inactive).
Turning to `Cc1ccc(Nc2nc3ccccc3c(=O)n2N)cc1`, the GI50 in assay [8] was > 100 µM (inactive).
In the case of `O=c1oc2ccccc2c(Nc2ccc3c(c2)Oc2ccccc2O3)c1[N+](=O)[O-]`, the GI50 in assay [8] was 30.1 µM (inactive).
Regarding `O=C(O)c1ccc(C2COc3ccc(Cl)cc3C2)cc1` (stereo not given), the GI50 in assay [1], in [2], in assay [3], in assay [4], in assay [5] and in assay [6] was > 100 µM (inactive) each time. Besides, in assay [7], the GI50 was > 100 µM (inactive).
In the case of `COC(=O)C1C(=O)CC2CCCCC21` (stereo not given), the GI50 in assay [1], in assay [2], in assay [3], in assay [4], in [5] and in assay [6] was > 100 µM (inactive) in each case.
Turning to `CSC1NNC2(C(=O)N1)c1ccccc1-c1ccccc12` (stereo not given), in assay [8], the GI50 was > 10 µM (inactive).
As to `C/C(=C/CC[C@](C)(OC1OC(CO)C(O)C(O)C1O)[C@H]1CC[C@]2(C)[C@@H]1CC[C@@H]1[C@@]3(C)CC[C@H](O)C(C)(C)[C@@H]3C[C@H](O)[C@]12CO)CO` (stereo not given in full), the GI50 in [8] is > 100 µM (inactive).
For the compound `Cc1ccc(S(=O)(=O)n2cc(C=O)c(-c3cn(S(=O)(=O)c4ccc(C)cc4)cc3-c3cn(S(=O)(=O)c4ccc(C)cc4)cc3C=O)c2)cc1`, in assay [8], the GI50 was > 100 µM (inactive).
Consider `Cc1c(C)c2c(c(N)c1C#N)C(=O)N(NC(=O)c1ccccc1)C2=O`, for which the GI50 in assay [8] is > 100 µM (inactive).
`CC1=C(C(=O)Nc2ccccc2C)C(c2ccc(C3C(C(=O)Nc4ccccc4C)=CNC=C3C(=O)Nc3ccccc3C)cc2)C(C(=O)Nc2ccccc2C)=C(C)N1`: the GI50 is 13.6 µM (inactive) in assay [1]; 20.7 µM (inactive) in [2]; 14.7 µM (inactive) in assay [3]; 10.9 µM (inactive) in assay [4]; 23.8 µM (inactive) in [5]; 30.2 µM (inactive) in assay [6]. For the same compound, in assay [7], the GI50 is 22.8 µM (inactive).
Turning to `c1ccc([P+](c2ccccc2)(c2ccccc2)c2ccc([P+](c3ccccc3)(c3ccccc3)c3ccccc3)c3ccccc23)cc1`, the GI50 in assay [8] is 47.8 µM (inactive).
With `CC1C2CC=CC(=O)[C@@]2(C)CCC12OCCO2` (stereo not given in full), the GI50 in assay [1] was > 100 µM (inactive); in assay [2], > 100 µM (inactive); in [3] it was 49.9 µM (inactive); in [4], > 100 µM (inactive); in assay [5], > 100 µM (inactive); in assay [6] it was > 100 µM (inactive).
Take `O=C1OC(c2ccc([N+](=O)[O-])cc2)=N/C1=C\c1ccc(O)cc1`: the GI50 in assay [8] is > 100 µM (inactive).
On the same count and under the same terms, the same measure for `CCOC(=O)CC(N1CC1)N1CC1`: > 10 µM (inactive); for `O=c1oc2ccc3ccccc3c2cc1-c1cn2c(n1)sc1ccccc12`: > 100 µM (inactive).
`O=C1C=CC(CC(=O)c2ccc3ccccc3c2)O1` (stereo not given): the GI50 in assay [1] was 28.7 µM (inactive); in assay [2], 20 µM (inactive); in assay [3], 20.5 µM (inactive); in [4], 18.4 µM (inactive); in assay [5] it was 43.5 µM (inactive); in assay [6] it was 34.9 µM (inactive). For the same compound, the GI50 in assay [7] is 66.5 µM (inactive).
In the case of `CCCCCCCCCCCCCCCCNC(=O)/C(=C\c1ccc(Cl)c(Cl)c1)NC(=O)c1ccccc1`, the GI50 in assay [8] is 42.8 µM (inactive).
Take `CN(C)c1ccc(/N=N/c2ccncc2)cc1`: the GI50 in assay [8] is > 100 µM (inactive).
As for `CC(C)c1ccc(/C=C2\CSCC3=C2N=C2SCC(=O)N2C3c2ccc(C(C)C)cc2)cc1` (stereo not given), in assay [8], the GI50 was > 100 µM (inactive).
In the case of `C[C@]12CC[C@H]3[C@@H](CC=C4C[C@@H](O)CC[C@@]43C)[C@@H]1C/C(=C\c1ccncc1)[C@@H]2O`, the GI50 in assay [8] is 39.3 µM (inactive).

(Values after ChEMBL document CHEMBL1201862, “PubChem BioAssay data set” (2004).)
